The values that follow come from patent US5120758A, “Certain benzodioxole, benzodioxane and benzodioxepin derivatives useful as 5-lipoxygenase inhibitors” (Ciba-Geigy Corporation, priority 1991, dated 1992).

Read-outs that look alike come from different tables or passages of the source.

Assay [1] relates to 5-lipoxygenase. The assay can be described thus: Ex vivo inhibition of A-23187-stimulated LTB4 formation in whole blood after oral administration. To be noted: dose of about 1.0 mg/kg p.o. to the dog. As for the experimental part: Furthermore, the inhibition of 5-lipoxygenase is determined after oral or i.v. administration to rats or dogs by measuring ex vivo in whole blood the decrease of A-23187-stimulated LTB4 formation as compared to non-treated control animals.

In assay [2] the target is T1, 5-lipoxygenase (Cavia porcellus, UniProt A0A286X958).
T1 construct: in A-23187-stimulated guinea pig polymorphonuclear leukocytes; endogenous in cells; host or cells: guinea pig polymorphonuclear leukocytes
T1 sequence (A0A286X958 1-674): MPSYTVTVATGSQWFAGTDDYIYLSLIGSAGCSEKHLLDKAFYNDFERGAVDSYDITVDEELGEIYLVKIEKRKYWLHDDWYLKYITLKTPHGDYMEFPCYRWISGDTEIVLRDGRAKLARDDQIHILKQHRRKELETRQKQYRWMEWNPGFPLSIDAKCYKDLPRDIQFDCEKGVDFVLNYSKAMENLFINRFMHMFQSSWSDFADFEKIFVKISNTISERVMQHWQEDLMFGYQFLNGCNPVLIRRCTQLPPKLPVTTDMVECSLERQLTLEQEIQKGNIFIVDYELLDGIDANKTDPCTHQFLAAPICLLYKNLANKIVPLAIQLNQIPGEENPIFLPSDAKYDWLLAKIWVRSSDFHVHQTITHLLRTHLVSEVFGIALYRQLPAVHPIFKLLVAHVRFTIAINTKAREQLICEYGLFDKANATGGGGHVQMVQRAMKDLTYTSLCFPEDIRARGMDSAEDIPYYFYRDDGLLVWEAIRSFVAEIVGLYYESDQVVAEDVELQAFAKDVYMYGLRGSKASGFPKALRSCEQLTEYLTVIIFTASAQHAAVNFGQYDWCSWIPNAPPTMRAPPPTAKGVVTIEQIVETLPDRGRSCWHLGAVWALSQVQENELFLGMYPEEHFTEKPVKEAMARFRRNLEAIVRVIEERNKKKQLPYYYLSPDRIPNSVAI
The assay can be described thus: Inhibition of 5-HETE and LTB4 synthesis in A-23187-stimulated guinea pig polymorphonuclear leukocytes. The class given is cell-based. As for the experimental part:
5-Lipoxygenase inhibition is determined e.g. by measuring the percent inhibition of the synthesis of 5-HETE [(5S)-5-hydroxy-6,8,11,14-eicosa-tetraenoic acid] and leukotriene B4 (LTB4, 5,12-dihydroxy-6,8,10,14-eicosatetraenoic acid) in A-23187-stimulated guinea pig polymorphonuclear leukocytes, essentially according to radiometric thin-layer chromatographic assays described by Walker and Dawson (J. Pharm. Pharmacol. 31: 778, 1979) and Jakschik and Lee (Nature 287: 51, 1980) to measure the formation of 5-HETE and LTB4 -like products from ^14 C-arachidonic acid. IC50 values are determined graphically as the concentration of test compound at which the synthesis of 5-HETE and LTB4 -like products is reduced to 50% of their respective control values.

For the compound `NC(=O)N(O)CC1COc2ccc(Oc3ccc(F)cc3)cc2O1` (stereo not drawn) [1(c), 2-(N-aminocarbonyl-N-hydroxy)aminomethyl-7-(4-fluorophenoxy)-1,4-benzodioxane], the “inhibition of LTB4 formation as determined ex vivo” value in the assay on 5-lipoxygenase [1] is “significant inhibition”. Moreover, the IC50 (as a rule, the concentration that gives 50% inhibition) at 5-lipoxygenase [2] (read-out: IC50, inhibition of formation of 5-HETE) was ~100 nM; on 5-lipoxygenase [2] (read-out: IC50, inhibition of formation of leukotriene B4 (LTB4)) it was ~120 nM.
